# In US20190144406A1, “CRYSTALLINE FORMS OF DIMETHOXY DOCETAXEL AND METHODS FOR PREPARING THE SAME” (Aventis Pharma S.A., priority 2008, published 2019):
# Where two headings read alike, the source gives them in different places.
# Columns and labels:
# [1] = solid form
# Procedure: The analyses were carried out on a Panalytical X'Pert Pro diffractometer with a reflection-mode Bragg-Brentano focusing geometry (θ-2θ) assembly. The product analysed is deposited as a thin layer on a silicon single crystal. A copper anticathode tube (45 kV/40 mA) supplies an incident radiation Cu Kα1 (λ=1.5406 Å). The beam is collimated using Sollers slits which improve the parallelism and variable slits which limit scattering. An X'Celerator detector completes the device. The diagram recording characteristics are the following: sweeping from 2 to 30 degrees 2θ, counting time from 100 to 500 seconds per step with a step of 0.017°.
# [2] = behaviour of the crystalline form under relative humidity; assay type: physicochemical; settings: relative humidity of greater than 5%
Compound,comparison of the PXRD analyses immediately after production and after maintaining at 40° C. for one month [1],stability relative to the other forms described (listed as anhydrous form D),change of form in the presence of relative humidity [2],stability relative to the other forms described
"CO[C@H]1C(=O)[C@]2(C)[C@@H](OC)C[C@H]3OC[C@@]3(OC(C)=O)[C@H]2[C@H](OC(=O)c2ccccc2)[C@]2(O)C[C@H](OC(=O)[C@H](O)[C@@H](NC(=O)OC(C)(C)C)c3ccccc3)C(C)=C1C2(C)C [Form A, reference compound]",partial desolvation resulting in a mixture of the acetone solvate form A and of the anhydrous form B being obtained,–,–,–
CO[C@H]1C(=O)[C@]2(C)[C@@H](OC)C[C@H]3OC[C@@]3(OC(C)=O)[C@H]2[C@H](OC(=O)c2ccccc2)[C@]2(O)C[C@H](OC(=O)[C@H](O)[C@@H](NC(=O)OC(C)(C)C)c3ccccc3)C(C)=C1C2(C)C [Form D],no change detected,most stable anhydrous form,–,–
CO[C@H]1C(=O)[C@]2(C)[C@@H](OC)C[C@H]3OC[C@@]3(OC(C)=O)[C@H]2[C@H](OC(=O)c2ccccc2)[C@]2(O)C[C@H](OC(=O)[C@H](O)[C@@H](NC(=O)OC(C)(C)C)c3ccccc3)C(C)=C1C2(C)C [anhydrous form C],–,–,changes to a hydrated form,least stable
